Data: patent publication US6630127B2, “Method for assessing cortical response to blue light” (The McLean Hospital Corporation, priority 2000, dated 2003)

Experiments:
[1] = tested on: human primary visual cortex (V1); experiment: fMRI BOLD study with alternating red and blue photic stimulation after oral d-amphetamine or placebo
[2] = tested on: visual cortex; details: photic stimulation paradigm, humans; cited from earlier work

Structure (SMILES)	Mean % BOLD signal change (all trials), V1, blue light stimulation ([1]; blue light 470 nm, 0.12 lux, 8 Hz, right and left V1 1x4 ROI, 2.5 mg d-amphetamine sulfate oral, N = 13)	mean BOLD signal change higher in drug than in placebo condition, blue light ([1]; blue light, drug 2.04% versus placebo 1.60%, all trials)	effect of time following drug administration on BOLD signal response to blue light ([1]; linear regression, 5 trials from about 18 min post-drug, Z=-2.471, P=0.013, decreasing BOLD signal over time)	effect of time following drug administration on BOLD signal response to red light ([1]; linear regression, 5 trials, Z=-0.470, P=0.638)	overall BOLD response to red and blue light ([1]; low dose (2.5 mg) d-amphetamine versus placebo)	Mean % BOLD signal change (all trials), V1, red light stimulation ([1]; red light 660 nm, 0.12 lux, 8 Hz, right and left V1 1x4 ROI, 2.5 mg d-amphetamine sulfate oral, N = 13)	mean BOLD signal change higher in drug than in placebo condition, red light ([1]; red light, drug 1.24% versus placebo 0.95%, all trials)	effect on BOLD signal / photic activation in visual cortex [2]
C[C@H](N)Cc1ccccc1.C[C@H](N)Cc1ccccc1.O=S(=O)(O)O [d-amphetamine, d-amphetamine sulfate]	2.04%	28%	significant effect of time	no significant effect of drug over time	enhanced	1.24%	30%	
CCO [ethanol]								inhibits photic activation
